Assay results published in patent US20240228475A1, “PROCESSES FOR THE PREPARATION OF (S)-2-(2,6-DIOXOPIPERIDIN-3-YL)-4-((2-FLUORO-4-((3-MORPHOLINOAZETIDIN-1-YL)METHYL)BENZYL)AMINO)ISOINDOLINE-1,3-DIONE” (Celgene Corporation, priority 2021, published 2024).
Converted amounts (≈) assume the structure as drawn.

Tests used:
[1] = Solubility of Compound 1 free base in aqueous at various pH; assay type: physicochemical; details: aqueous solution, aqueous buffer
Description: (§1) The rate is time and temperature sensitive (Table 1). The isolation of the crystalline bis-besylate salt of Compound 1 avoids the need for a pH swing. Also, the crystalline freebase has poor morphology which makes filtration slow, increasing the risk for racemization.

[2] = Chiral stability (racemization) of Compound 1 free base in aqueous at various pH; assay type: physicochemical; details: for Chiral Purity: aqueous
Description: as §1

| solubility at 3 h ([1]; pH 5.3, time 3 h) | solubility at 4 h ([1]; pH 6.7, time 4 h) | solubility at 4 h ([1]; pH 7.6, time 4 h) | Chiral stability towards aqueous base ([2]; aqueous base, rate is time and temperature sensitive) | Chiral Purity ([2]; pH 5.3, time 3 h) | Chiral Purity ([2]; pH 6.7, time 4 h) | Chiral Purity ([2]; pH 7.6, time 4 h) | Chiral stability compared to the crystalline freebase ([2]; isolated solid, compared to crystalline freebase) | SMILES |
| --- | --- | --- | --- | --- | --- | --- | --- | --- |
| 4500 µg/mL (≈ 8.4 mM) | 2400 µg/mL (≈ 4.48 mM) | 400 µg/mL (≈ 0.747 mM) | racemization was observed | 94.1% | 89.1% | 83.2% | – | O=C1CC[C@H](N2C(=O)c3cccc(NCc4ccc(CN5CC(N6CCOCC6)C5)cc4F)c3C2=O)C(=O)N1 [Compound 1 Free Base, (S)-2-(2,6-dioxopiperidin-3-yl)-4-((2-fluoro-4-((3-morpholinoazetidin-1-yl)methyl)benzyl)amino)isoindoline-1,3-dione] |
| – | – | – | – | – | – | – | more stable | O=C1CC[C@H](N2C(=O)c3cccc(NCc4ccc(CN5CC(N6CCOCC6)C5)cc4F)c3C2=O)C(=O)N1.O=S(=O)(O)c1ccccc1.O=S(=O)(O)c1ccccc1 [Compound 1 bis-besylate salt, (S)-2-(2,6-dioxopiperidin-3-yl)-4-((2-fluoro-4-((3-morpholinoazetidin-1-yl)methyl)benzyl)amino)isoindoline-1,3-dione bis-besylate salt] |
